Consider 22 molecules from patent publication US20220056015A1, “KIF18A INHIBITORS” (AMGEN INC., priority 2018, published 2022).

This assay deals with T1, Recombinant human KIF18A (1-467 His-tagged) protein (Homo sapiens, UniProt Q8NI77).
T1 construct: Recombinant human KIF18A (1-467 His-tagged) protein; His
The assay can be described thus: KIF18A Enzyme Assay: microtubule-stimulated ATPase activity assay (ADP-Glo). The format is biochemical. Particulars: 30 nM KIF18A, 30 μg/mL pig microtubules, ATP at Km 75 μM, room temperature, ADP-Glo luminescence. The text has this:
KIF18A Enzyme Assay: Microtubule-stimulated ATPase activity assay is used to measure KIF18A enzyme activity after treatment with compound. Compounds were 2-fold serially diluted in DMSO (Sigma Inc) over 22-point concentration range. Recombinant human KIF18A (1-467 His-tagged) protein was expressed using a baculovirus system and purified by affinity chromatography by Amgen Inc. Concentrations of KIF18A protein, microtubules (MT), and ATP in the reaction were optimized for standardized homogenous enzyme assay using ADP-Glorm Kinase/ATPase Assay Kit (Promega Inc). The assay measures ADP formed from the ATPase reaction. […] Read luminescence using EnVision microplate reader with ultra-luminescence module (Perkin Elmer Inc). Concentration-response curve-fitting and ICn determination was performed using Genedata Screener Software (Standard 15.0.1, Genedata Inc) with a four-parameter logistic regression fit model.
On the technique in general: ADP-Glo turns the ADP formed in a reaction into a luminescent signal.

T1 sequence (Q8NI77 1-467): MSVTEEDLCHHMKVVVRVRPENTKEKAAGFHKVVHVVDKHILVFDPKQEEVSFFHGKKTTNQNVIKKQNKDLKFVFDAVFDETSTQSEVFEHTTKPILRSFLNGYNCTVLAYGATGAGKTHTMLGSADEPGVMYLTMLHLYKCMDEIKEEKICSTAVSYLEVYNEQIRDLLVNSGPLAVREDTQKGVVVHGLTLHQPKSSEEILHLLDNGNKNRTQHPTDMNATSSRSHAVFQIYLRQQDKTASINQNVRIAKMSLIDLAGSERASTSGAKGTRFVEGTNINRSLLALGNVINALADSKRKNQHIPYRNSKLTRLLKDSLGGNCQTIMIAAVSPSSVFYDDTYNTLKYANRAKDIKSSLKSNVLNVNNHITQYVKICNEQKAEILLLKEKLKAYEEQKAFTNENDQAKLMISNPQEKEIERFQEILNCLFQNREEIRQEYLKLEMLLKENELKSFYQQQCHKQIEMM
T1 sequence (P02550 whole entry partner): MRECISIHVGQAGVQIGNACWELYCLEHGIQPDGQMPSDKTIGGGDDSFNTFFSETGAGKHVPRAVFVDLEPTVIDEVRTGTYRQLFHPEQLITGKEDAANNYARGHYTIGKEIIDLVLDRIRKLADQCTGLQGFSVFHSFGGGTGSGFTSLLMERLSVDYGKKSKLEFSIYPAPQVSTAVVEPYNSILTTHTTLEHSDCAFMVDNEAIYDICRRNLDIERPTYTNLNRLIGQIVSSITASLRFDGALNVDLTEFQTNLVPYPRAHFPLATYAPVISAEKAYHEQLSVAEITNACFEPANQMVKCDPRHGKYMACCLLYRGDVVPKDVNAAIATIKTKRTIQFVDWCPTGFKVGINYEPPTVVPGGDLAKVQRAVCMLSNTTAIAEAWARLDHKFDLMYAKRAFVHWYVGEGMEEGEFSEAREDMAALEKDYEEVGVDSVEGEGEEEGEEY
T1 sequence (P02554 whole entry partner): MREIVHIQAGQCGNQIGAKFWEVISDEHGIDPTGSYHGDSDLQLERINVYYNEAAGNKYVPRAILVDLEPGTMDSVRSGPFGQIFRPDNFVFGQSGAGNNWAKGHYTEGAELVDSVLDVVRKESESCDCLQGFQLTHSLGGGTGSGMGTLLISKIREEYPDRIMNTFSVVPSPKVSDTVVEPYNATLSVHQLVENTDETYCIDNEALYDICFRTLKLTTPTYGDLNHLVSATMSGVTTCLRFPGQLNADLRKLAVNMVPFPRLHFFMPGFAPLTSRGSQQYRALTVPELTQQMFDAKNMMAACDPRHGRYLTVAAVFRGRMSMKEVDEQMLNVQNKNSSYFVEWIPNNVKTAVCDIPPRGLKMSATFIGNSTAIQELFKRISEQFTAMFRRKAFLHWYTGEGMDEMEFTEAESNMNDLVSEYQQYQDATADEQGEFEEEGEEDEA

The term IC50 denotes the midpoint of a concentration-inhibition curve. `Cc1cc(NC(=O)c2cnc(NS(=O)(=O)CCO)cc2N2CCC3(CC2)CC3)nc(N2CCC(F)(F)CC2)n1` [Example 7, N-(2-(4,4-Difluoropiperidin-1-yl)-6-methylpyrimidin-4-yl)-6-((2-hydroxyethyl)sulfonamido)-4-(6-azaspiro[2.5]octan-6-yl)nicotinamide]: the IC50 was 13 nM.
In the case of `Cc1cc(NC(=O)c2ncc(S(=N)(=O)C3CC3)cc2N2CCC3(CC2)CC3)nc(N2CCC(F)(F)CC2)n1` (single isomer, unassigned) [Example 5-2, 3-(6-Azaspiro[2.5]octan-6-yl)-5-(S-cyclopropylsulfonimidoyl)-N-(2-(4,4-difluoro-1-piperidinyl)-6-methyl-4-pyrimidinyl)-2-pyridinecarboxamide] it was 71 nM; in that of `Cc1cc(NC(=O)c2ccc(NC3(C)COC3)nc2N2CCC3(CC2)CC3)nc(N2CCO[C@H](C)C2)n1` [Example 2-1, (R)-N-(6-Methyl-2-(2-methylmorpholino)pyrimidin-4-yl)-6-((3-methyloxetan-3-yl)amino)-2-(6-azaspiro[2.5]octan-6-yl)nicotinamide], 355 nM.
As to `Cc1cc(NC(=O)c2ccc(NC3(CO)COC3)nc2N2CCC3(CC2)CC3)nc(N2CCC(F)(F)CC2)n1` [Example 2-4, N-(2-(4,4-Difluoropiperidin-1-yl)-6-methylpyrimidin-4-yl)-6-((3-(hydroxymethyl)oxetan-3-yl)amino)-2-(6-azaspiro[2.5]octan-6-yl)nicotinamide], the IC50 is 173 nM.
For `Cc1cc(NC(=O)c2ccc(NC3COC3)nc2N2CCC3(CC2)CC3)nc(N2CCO[C@H](C)C2)n1` [Example 2, (R)—N-(6-methyl-2-(2-methylmorpholino)pyrimidin-4-yl)-6-(oxetan-3-ylamino)-2-(6-azaspiro[2.5]octan-6-yl)nicotinamide] the value was 916 nM; for `Cc1cc(NC(=O)c2ncc(NC(C)(C)CO)nc2N2CCC3(CC2)CC3)nc(N2CCC(F)(F)CC2)n1` [Example 2-8, N-(2-(4,4-Difluoropiperidin-1-yl)-6-methylpyrimidin-4-yl)-5-((1-hydroxy-2-methylpropan-2-yl)amino)-3-(6-azaspiro[2.5]octan-6-yl)pyrazine-2-carboxamide], 88 nM.
For `Cc1cc(NC(=O)c2cnc([S@@](=N)(=O)C3CC3)cc2N2CCC3(CC2)CC3)nc(N2CCC(F)(F)CC2)n1` (single isomer, unassigned) [Example 4-2, 4-(6-Azaspiro[2.5]octan-6-yl)-6-(R-cyclopropylsulfonimidoyl)-N-(2-(4,4-difluoro-1-piperidinyl)-6-methyl-4-pyrimidinyl)-3-pyridinecarboxamide] the value was 206 nM.
For the molecule `Cc1cc(NC(=O)c2cnc(S(=N)(=O)C3CC3)cc2N2CCC3(CC2)CC3)nc(N2CCC(F)(F)CC2)n1` (single isomer, unassigned) [Example 4-1, 4-(6-Azaspiro[2.5]octan-6-yl)-6-(S-cyclopropylsulfonimidoyl)-N-(2-(4,4-difluoro-1-piperidinyl)-6-methyl-4-pyrimidinyl)-3-pyridinecarboxamide], the IC50 turned out to be 264 nM.
For `Cc1cc(NC(=O)c2ccc(NS(=O)(=O)CCO)nc2N2CCC3(CC2)CC3)nc(N2CCC(F)(F)CC2)n1` [Example 1, N-(2-(4,4-difluoropiperidin-1-yl)-6-methylpyrimidin-4-yl)-6-((2-hydroxyethyl)sulfonamido)-2-(6-azaspiro[2.5]octan-6-yl)nicotinamide] the value was 31 nM; for `Cc1cc(NC(=O)c2ccc(NC3(C)COC3)nc2N2CCC3(CC2)CC3)nc(N2CCC(F)(F)CC2)n1` [Example 2-3, N-(2-(4,4-Difluoropiperidin-1-yl)-6-methylpyrimidin-4-yl)-6-((3-methyloxetan-3-yl)amino)-2-(6-azaspiro[2.5]octan-6-yl)nicotinamide], 453 nM.
On to `Cc1cc(NC(=O)c2cnc(NS(=O)(=O)CCO)nc2N2CCC3(CC2)CC3)nc(N2CCC(F)(F)CC2)n1` [Example 7-1, N-(2-(4,4-difluoropiperidin-1-yl)-6-methylpyrimidin-4-yl)-2-((2-hydroxyethyl)sulfonamido)-4-(6-azaspiro[2.5]octan-6-yl)pyrimidine-5-carboxamide], for which the IC50 is 272 nM.
In the case of `Cc1cc(NC(=O)c2cc(NCCO)ncc2N2CCC3(CC2)CC3)nc(N2CCC(F)(F)CC2)n1` [Example 9, N-(2-(4,4-Difluoropiperidin-1-yl)-6-methylpyrimidin-4-yl)-2-((2-hydroxyethyl)amino)-5-(6-azaspiro[2.5]octan-6-yl)isonicotinamide] it was 394 nM; in that of `Cc1cc(NC(=O)c2ncc(NS(=O)(=O)CCO)cc2N2CCC3(CC2)CC3)nc(N2CCC(F)(F)CC2)n1` [Example 6, N-(2-(4,4-Difluoropiperidin-1-yl)-6-methylpyrimidin-4-yl)-5-((2-hydroxyethyl)sulfonamido)-3-(6-azaspiro[2.5]octan-6-yl)picolinamide], 15 nM.
For `Cc1cc(NC(=O)c2ncc([S@](=N)(=O)C3CC3)cc2N2CCC3(CC2)CC3)nc(N2CCC(F)(F)CC2)n1` [Example 5-1, 3-(6-Azaspiro[2.5]octan-6-yl)-5-(R-cyclopropylsulfonimidoyl)-N-(2-(4,4-difluoro-1-piperidinyl)-6-methyl-4-pyrimidinyl)-2-pyridinecarboxamide] the value was 105 nM; for `Cc1cc(NC(=O)c2ccc(NS(=O)(=O)CCO)nc2N2CCC3(CC2)CC3)nc(N2CCO[C@H](C)C2)n1` [Example 1-1, (R)-6-((2-Hydroxyethyl)sulfonamido)-N-(6-methyl-2-(2-methylmorpholino)pyrimidin-4-yl)-2-(6-azaspiro[2.5]octan-6-yl)nicotinamide], 402 nM; for `Cc1cc(NC(=O)c2ncc(NS(=O)(=O)CCO)nc2N2CCC3(CC2)CC3)nc(N2CCC(F)(F)CC2)n1` [Example 10, N-(2-(4,4-Difluoropiperidin-1-yl)-6-methylpyrimidin-4-yl)-5-((2-hydroxyethyl)sulfonamido)-3-(6-azaspiro[2.5]octan-6-yl)pyrazine-2-carboxamide], 80 nM.
For `Cc1cc(NC(=O)c2cnc(NC(C)(C)CO)nc2N2CCC3(CC2)CC3)nc(N2CCC(F)(F)CC2)n1` [Example 2-7, N-(2-(4,4-Difluoropiperidin-1-yl)-6-methylpyrimidin-4-yl)-2-((1-hydroxy-2-methylpropan-2-yl)amino)-4-(6-azaspiro[2.5]octan-6-yl)pyrimidine-5-carboxamide] the value was 55 nM; for `O=C(Nc1ccc(NS(=O)(=O)CCO)cc1N1CCC2(CC1)CC2)c1ccnc(N2CCC(F)(F)CC2)c1` [Example 11, 2-(4,4-Difluoropiperidin-1-yl)-N-(4-((2-hydroxyethyl)sulfonamido)-2-(6-azaspiro[2.5]octan-6-yl)phenyl)isonicotinamide], 27 nM; for `Cc1cc(NC(=O)c2ncc(S(=O)(=O)C3CC3)cc2N2CCC3(CC2)CC3)nc(N2CCC(F)(F)CC2)n1` [Example 8, 5-(Cyclopropylsulfonyl)-N-(2-(4,4-difluoropiperidin-1-yl)-6-methylpyrimidin-4-yl)-3-(6-azaspiro[2.5]octan-6-yl)picolinamide], 91 nM.
As for `Cc1cc(NC(=O)c2ncc(NC(C)(C)CO)cc2N2CCC3(CC2)CC3)nc(N2CCC(F)(F)CC2)n1` [Example 2-6, N-(2-(4,4-Difluoropiperidin-1-yl)-6-methylpyrimidin-4-yl)-5-((1-hydroxy-2-methylpropan-2-yl)amino)-3-(6-azaspiro[2.5]octan-6-yl)picolinamide], the IC50 is 122 nM.
For `Cc1cc(NC(=O)c2ccc(NC(C)(C)CO)nc2N2CCC3(CC2)CC3)nc(N2CCO[C@H](C)C2)n1` [Example 2-5, (R)-6-((1-Hydroxy-2-methylpropan-2-yl)amino)-N-(6-methyl-2-(2-methylmorpholino)pyrimidin-4-yl)-2-(6-azaspiro[2.5]octan-6-yl)nicotinamide] the value was 230 nM; for `Cc1cc(NC(=O)c2ccc(NC3(CO)COC3)nc2N2CCC3(CC2)CC3)nc(N2CCO[C@H](C)C2)n1` [Example 2-2, (R)-6-((3-(Hydroxymethyl)oxetan-3-yl)amino)-N-(6-methyl-2-(2-methylmorpholino)pyrimidin-4-yl)-2-(6-azaspiro[2.5]octan-6-yl)nicotinamide], 218 nM.
